The values that follow come from ChEMBL document CHEMBL1130968, “Synthesis and biological evaluation of 2,2-disubstituted 2-aminoethanols: analogues of FTY720” (1998).

For test [1], the system named is Rattus norvegicus. The test can be described thus: In vivo immunosuppressive effect of compound was determined on host versus graft reaction (HvGR) using popliteal lymph node gain assay in rat. The class given is functional. The note with it: read-out: ID50 (the source's name).
The subject of test [2] is Rattus norvegicus. The test can be described thus: Decrease in number of T cells in peripheral blood after administration for 4 days in rat. The note with it: T-cell, 96 h, read-out: ID50 (the source's name). The format is functional.

As to `CCCCCCCOc1ccc(CCC(N)(CO)CCC)cc1` (stereo unspecified), the values for the ED50 with Rattus norvegicus [1] and in the test on Rattus norvegicus [2] were 3.1 mg/kg and 7.3 mg/kg, respectively.

Consider `CCCCCCCOc1ccc(CCC(N)(CO)C(C)C)cc1` (stereo unspecified), for which the ED50 came to 2.7 mg/kg with Rattus norvegicus [1] and 4.5 mg/kg in the test on Rattus norvegicus [2].

With `CCCCCCCOc1ccc(CC[C@](C)(N)CO)cc1`, the ED50 in the test on Rattus norvegicus [1] and with Rattus norvegicus [2] was above 1 mg/kg each time.

For `CCCCCCCOc1ccc(CC[C@@](C)(N)CO)cc1`, the results for the ED50 with Rattus norvegicus [1] and with Rattus norvegicus [2] were 0.088 mg/kg and 0.0092 mg/kg, respectively.

Turning to `CCCCCCCOc1ccc(CCC(N)(CC)CO)cc1` (stereo unspecified), the figures for the ED50 in the test on Rattus norvegicus [1] and in the test on Rattus norvegicus [2] were 0.059 mg/kg and 0.044 mg/kg, respectively.

For the molecule `CCCCCCCOc1ccc(CC[C@](N)(CO)CCC)cc1`, the ED50 in the test on Rattus norvegicus [1] and in the test with Rattus norvegicus [2] was above 10 mg/kg each time.

Take `CCCCCCCCc1ccc(CCC(N)CO)cc1.Cl` (stereo unspecified): the ED50 with Rattus norvegicus [1] and with Rattus norvegicus [2] was above 10 mg/kg throughout.

For `CCCCCCCOc1ccc(CCC(N)(CO)CO)cc1`, the ED50 amounted to 0.049 mg/kg in the test on Rattus norvegicus [1] and 0.014 mg/kg with Rattus norvegicus [2].

For the molecule `CCCCCCCOc1ccc(CCC(N)(CO)CCCC)cc1` (stereo unspecified), the ED50 in the test with Rattus norvegicus [1] and in the test on Rattus norvegicus [2] was above 10 mg/kg in each case.

As for `CCCCCCCOc1ccc(CC[C@@](N)(CO)CCC)cc1`, the values for the ED50 in the test with Rattus norvegicus [1] and in the test with Rattus norvegicus [2] were 0.63 mg/kg and 4.4 mg/kg, respectively.

Take `CCCCCCCOc1ccc(CCC(C)(N)CO)cc1` (stereo unspecified): the ED50 stood at 0.031 mg/kg with Rattus norvegicus [1] and 0.061 mg/kg in the test on Rattus norvegicus [2].

Consider `C/C=C/C[C@@H](C)[C@@H](O)[C@H]1C(=O)N[C@@H](CC)C(=O)N(C)CC(=O)N(C)[C@@H](CC(C)C)C(=O)N[C@@H](C(C)C)C(=O)N(C)[C@@H](CC(C)C)C(=O)N[C@@H](C)C(=O)N[C@H](C)C(=O)N(C)[C@@H](CC(C)C)C(=O)N(C)[C@@H](CC(C)C)C(=O)N(C)[C@@H](C(C)C)C(=O)N1C` [CYCLOSPORINE], for which the ED50 was 2.8 mg/kg with Rattus norvegicus [1] and above 30 mg/kg in the test with Rattus norvegicus [2].

Turning to `CCCCCCCCc1ccc(CCC(N)(CO)CO)cc1.Cl` [FINGOLIMOD HYDROCHLORIDE], the figures for the ED50 in the test with Rattus norvegicus [1] and in the test with Rattus norvegicus [2] were 0.2 mg/kg and 0.024 mg/kg, respectively.
